Assay results from US20250140406A1, “CLASSIFYING TUMORS AND PREDICTING RESPONSIVENESS” (Oncocyte Corporation, priority 2022, published 2025).
Where two headings read alike, the source gives them in different places.

Experiments:
[1] = test system: cancer cell lines classified IM, MSL, M; assay: PRISM screen compound sensitivity correlated with IM, MSL and M subtype of cell lines (101 gene signature); assay type: cell-based; details: for TNBCType train: 101 gene signature
[2] = test system: cancer cell lines, DetermaIO classes; assay: Association of PRISM compound sensitivity with DetermaIO (DTIO) cell line classes; assay type: cell-based
[3] = correlation of PRISM compound sensitivity with IM subtype correlation, test cell set (188 cell lines)
[4] = correlation of PRISM compound sensitivity with M subtype correlation, test cell set (188 cell lines)
[5] = correlation of PRISM compound sensitivity with MSL subtype correlation, test cell set (188 cell lines)
[6] = correlation of PRISM compound sensitivity with DTIO (DetermaIO), test cell set (188 cell lines)
[7] = correlation of PRISM compound sensitivity with DTIO (DetermaIO), training cell set (371 cell lines)
[8] = correlation of PRISM compound sensitivity with IM subtype correlation, test cell set
[9] = correlation of PRISM compound sensitivity with M subtype correlation, test cell set
[10] = correlation of PRISM compound sensitivity with MSL subtype correlation, test cell set
[11] = correlation of PRISM compound sensitivity with DTIO, test cell set
[12] = correlation of PRISM compound sensitivity with DTIO, training cell set
[13] = subtype (IM, MSL or M) with which compound sensitivity is negatively correlated, training cell set (371 cell lines)
[14] = subtype (IM, MSL or M) assigned to the compound by negative correlation of PRISM sensitivity with subtype, training cell set (371 cell lines)

SMILES | IM Corr test [1, 3] | M Corr test [1, 4] | MSL Corr test [1, 5] | DTIO Corr test [2, 11] | DTIO Corr train [2, 12] | other results
OCCN1CCN(CC/C=C2/c3ccccc3Sc3ccc(C(F)(F)F)cc32)CC1 [flupentixol] | −0.05449 | 0.1086 | 0.1536 |  |  | DTIO Corr test [2, 6]: −0.04775; DTIO Corr train [2, 7]: −0.1041
C[C@H](C(=O)O)c1ccc(-c2ccccc2)c(F)c1 [flurbiprofen-(S)-(+)] | −0.0194 | 0.01889 | 0.02942 |  |  | DTIO Corr test [2, 6]: −0.0319; DTIO Corr train [2, 7]: −0.04195
CNC(=O)CN(CCN(CCN(CC(=O)[O-])CC(=O)NC)CC(=O)[O-])CC(=O)[O-].[Gd+3] [gadodiamide] |  |  |  | −0.0433 | −0.1128 | IM Corr test [1, 8]: −0.07426; M Corr test [1, 9]: 0.04886; MSL Corr test [1, 10]: −0.03759
CC(O)CN1CCN(CC(=O)[O-])CCN(CC(=O)[O-])CCN(CC(=O)[O-])CC1.[Gd+3] (centres unmarked) [gadoteridol] | −0.02624 | −0.02135 | −0.00929 | −0.08228 | −0.04116 | TNBCType train [1, 13]: MSL
CC(C)=CCC[C@](C)(O[C@@H]1O[C@H](CO)[C@@H](O)[C@H](O)[C@H]1O)[C@H]1CC[C@]2(C)[C@@H]1[C@H](O)C[C@@H]1[C@@]3(C)CC[C@H](O[C@@H]4O[C@H](CO)[C@@H](O)[C@H](O)[C@H]4O[C@@H]4O[C@H](CO)[C@@H](O)[C@H](O)[C@H]4O)C(C)(C)[C@@H]3CC[C@]12C [ginsenoside-rd] |  |  |  |  |  | IM Corr test [1]: −0.05744; M Corr test [1]: −0.00784; MSL Corr test [1]: −0.02352; TNBCType train [1, 13]: MSL; DTIO Corr test [2]: −0.0392; DTIO Corr train [2]: −0.02011
CC(C)=CCC[C@](C)(O)[C@H]1CC[C@]2(C)[C@@H]1[C@H](O)C[C@@H]1[C@@]3(C)CC[C@H](O[C@@H]4O[C@H](CO)[C@@H](O)[C@H](O)[C@H]4O[C@@H]4O[C@H](CO)[C@@H](O)[C@H](O)[C@H]4O)C(C)(C)[C@@H]3CC[C@]12C [ginsenoside-rg3] | 0.007852 | −0.05841 | −0.02955 | −0.00056 | 0.0566 | 
CC(C)C[C@H](NC(=O)CNC(=O)[C@H](Cc1ccc(O)cc1)NC(=O)[C@H](CO)NC(=O)[C@H](Cc1c[nH]c2ccccc12)NC(=O)[C@H](Cc1cnc[nH]1)NC(=O)[C@@H]1CCC(=O)N1)C(=O)N[C@@H](CCCNC(=N)N)C(=O)N1CCC[C@H]1C(=O)NCC(N)=O [gonadorelin] | −0.1061 | −0.01145 | −0.1224 |  |  | TNBCType train ([1]; subtype (IM, MSL or M) the PRISM compound sensitivity is associated with, training cell set (371 cell lines)): MSL; DTIO Corr test ([2]; correlation of PRISM compound sensitivity with DTIO, test cell set (188 cell lines)): −0.06774; DTIO Corr train ([2]; correlation of PRISM compound sensitivity with DTIO, training cell set (371 cell lines)): −0.05189
O=C(O)Cc1cccnc1C(=O)O [homoquinolinic-acid] |  |  |  | −0.0252 | −0.1121 | IM Corr test [1, 8]: −0.08778; M Corr test [1, 9]: 0.05663; MSL Corr test [1, 10]: 0.003236
O=C(O)CCCN1C(=O)c2cccc3cccc(c23)C1=O [isodibut] | −0.04572 | −0.03436 | −0.1039 |  |  | TNBCType train [1, 14]: MSL; DTIO Corr test [2, 6]: −0.0652; DTIO Corr train [2, 7]: 0.05075
CNC(C)CCC=C(C)C.CNC(C)CCC=C(C)C.O=C(O)[C@@H](O)[C@H](O)[C@H](O)[C@@H](O)C(=O)O [isometheptene-mucate] | −0.09289 | 0.05313 | 0.118 | −0.04443 | −0.1179 | 
C[C@]12CC[C@H]3[C@@H](CC[C@]4(O)C[C@@H](O)CC[C@]34C=O)[C@@]1(O)CC[C@@H]2C1=CC(=O)OC1 [k-strophanthidin] | −0.06974 | −0.03165 | −0.1099 | −0.03307 | −0.01124 | TNBCType train [1, 13]: MSL
O=C(CCn1cnc2c(=O)[nH]cnc21)Nc1ccc(C(=O)O)cc1 [leteprinim] |  |  |  | 0.02507 | −0.08293 | IM Corr test [1, 8]: 0.08575; M Corr test [1, 9]: −0.1262; MSL Corr test [1, 10]: −0.09795; TNBCType train ([1]; subtype (IM, MSL or M) with which PRISM compound sensitivity is negatively correlated, training cell set): MSL
N=C(N)NC(=N)Nc1cccc(Cl)c1 [m-Chlorophenylbiguanide] |  |  |  | −0.0968 | −0.09639 | IM Corr test [1, 8]: −0.148; M Corr test [1, 9]: 0.08655; MSL Corr test [1, 10]: 0.1129
O=C(O)[C@H](O)[C@@H](O)[C@H](O[C@@H]1O[C@H](CO)[C@H](O)[C@H](O)[C@H]1O)[C@H](O)CO [maltobionic-acid] | 0.1078 | −0.08169 | 0.03716 | 0.13 | 0.09859 | 
CCOC(=O)c1c(C)n(C)c2ccc(O)cc12 [mecarbinate] |  |  |  | −0.09259 | −0.07862 | IM Corr test [1, 8]: −0.08712; M Corr test [1, 9]: 0.04238; MSL Corr test [1, 10]: −0.08851
CC(C)(CCCCCCCCCCC(C)(C)CC(=O)O)CC(=O)O [medica-16] | −0.06152 | 0.01613 | −0.1086 |  |  | TNBCType train [1, 14]: MSL; DTIO Corr test [2, 6]: 0.004343; DTIO Corr train [2, 7]: −0.05017
[O-][n+]1cccc(CO)c1 [mepiroxol] | −0.07855 | 0.0253 | 0.01789 |  |  | DTIO Corr test [2, 6]: −0.08258; DTIO Corr train [2, 7]: −0.1082
CC(C)(C)NCc1cc(Nc2ccnc3cc(Cl)ccc23)c2c(c1O)CCCC2.O=P(O)(O)O.O=P(O)(O)O [naphthoquine-phosphate] | −0.01598 | 0.03443 | −0.02275 | 0.04517 | 0.03212 | TNBCType train [1, 13]: MSL
O=[N+]([O-])c1ccc([As](=O)(O)O)cc1 [nitarsone] | −0.01836 | 0.02346 | −0.02358 |  |  | TNBCType train [1, 14]: MSL; DTIO Corr test [2, 6]: −0.04129; DTIO Corr train [2, 7]: 0.03389
C#C[C@]1(OC(=O)CCCCCC)CC[C@H]2[C@@H]3CCC4=CC(=O)CC[C@@H]4[C@H]3CC[C@@]21C [norethisterone-enanthate] |  |  |  |  |  | IM Corr test [1]: −0.05873; M Corr test [1]: 0.01774; MSL Corr test [1]: 0.1042; DTIO Corr test [2]: 0.009756; DTIO Corr train [2]: −0.1312
COc1ccc(C2=N[C@@H](c3ccc(Cl)cc3)[C@@H](c3ccc(Cl)cc3)N2C(=O)N2CCNC(=O)C2)c(OC(C)C)c1 [nutlin-3] | 0.06852 | −0.07413 | 0.03536 | 0.1503 | 0.1606 | 
C[N+](C)(C)CC#CCN1CCCC1=O [oxotremorine-m] | −0.08895 | 0.05992 | 0.09728 | −0.1128 | −0.0669 | 
